Experiment [1] deals with T1, Histone-lysine N-methyltransferase EHMT2 (Homo sapiens) (UniProt Q96KQ7).
T1 sequence (whole entry): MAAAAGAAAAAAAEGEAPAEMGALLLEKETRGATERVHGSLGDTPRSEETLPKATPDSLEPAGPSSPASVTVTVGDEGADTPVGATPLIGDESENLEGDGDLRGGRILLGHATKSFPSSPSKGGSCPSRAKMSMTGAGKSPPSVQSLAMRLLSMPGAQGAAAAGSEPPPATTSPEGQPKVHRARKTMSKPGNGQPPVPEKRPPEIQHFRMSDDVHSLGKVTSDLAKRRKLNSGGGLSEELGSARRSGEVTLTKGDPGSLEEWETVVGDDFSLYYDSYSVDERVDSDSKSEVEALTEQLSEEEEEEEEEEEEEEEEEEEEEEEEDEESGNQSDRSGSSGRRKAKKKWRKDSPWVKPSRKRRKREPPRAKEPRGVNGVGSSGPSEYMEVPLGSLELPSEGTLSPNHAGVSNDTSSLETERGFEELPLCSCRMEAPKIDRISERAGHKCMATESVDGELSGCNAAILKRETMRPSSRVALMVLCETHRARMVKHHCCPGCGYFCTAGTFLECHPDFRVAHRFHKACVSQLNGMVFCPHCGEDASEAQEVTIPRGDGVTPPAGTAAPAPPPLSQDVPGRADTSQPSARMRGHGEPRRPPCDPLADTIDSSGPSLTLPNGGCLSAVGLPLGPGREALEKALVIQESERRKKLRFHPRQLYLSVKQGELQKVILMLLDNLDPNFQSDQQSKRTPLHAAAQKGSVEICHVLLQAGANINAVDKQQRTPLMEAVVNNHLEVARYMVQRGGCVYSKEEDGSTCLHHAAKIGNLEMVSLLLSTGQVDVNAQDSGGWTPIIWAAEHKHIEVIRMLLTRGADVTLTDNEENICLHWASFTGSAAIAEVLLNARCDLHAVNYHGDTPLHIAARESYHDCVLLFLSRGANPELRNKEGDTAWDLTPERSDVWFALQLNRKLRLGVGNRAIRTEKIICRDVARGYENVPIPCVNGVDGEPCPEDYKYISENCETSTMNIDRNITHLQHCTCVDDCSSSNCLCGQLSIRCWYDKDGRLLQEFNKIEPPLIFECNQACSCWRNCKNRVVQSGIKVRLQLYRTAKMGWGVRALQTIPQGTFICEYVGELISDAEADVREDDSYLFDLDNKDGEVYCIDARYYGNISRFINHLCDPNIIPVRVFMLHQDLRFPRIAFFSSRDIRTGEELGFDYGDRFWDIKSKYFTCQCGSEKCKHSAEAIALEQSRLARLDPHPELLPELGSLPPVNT
The experiment can be described thus: Selectivity interaction (Methyltransferase screen (Scintillation proximity assays)) EUB0000255b EHMT2. (SPA uses beads or plates that emit light when radiolabelled molecules are held near them.)

Experiment [2] has as its target RAF proto-oncogene serine/threonine-protein kinase (Homo sapiens) (UniProt P04049). The following applies: at 10 µM.
Experiment [3] deals with T2, Serine/threonine-protein kinase ULK3 (Homo sapiens) (UniProt Q6PHR2).
T2 sequence (whole entry): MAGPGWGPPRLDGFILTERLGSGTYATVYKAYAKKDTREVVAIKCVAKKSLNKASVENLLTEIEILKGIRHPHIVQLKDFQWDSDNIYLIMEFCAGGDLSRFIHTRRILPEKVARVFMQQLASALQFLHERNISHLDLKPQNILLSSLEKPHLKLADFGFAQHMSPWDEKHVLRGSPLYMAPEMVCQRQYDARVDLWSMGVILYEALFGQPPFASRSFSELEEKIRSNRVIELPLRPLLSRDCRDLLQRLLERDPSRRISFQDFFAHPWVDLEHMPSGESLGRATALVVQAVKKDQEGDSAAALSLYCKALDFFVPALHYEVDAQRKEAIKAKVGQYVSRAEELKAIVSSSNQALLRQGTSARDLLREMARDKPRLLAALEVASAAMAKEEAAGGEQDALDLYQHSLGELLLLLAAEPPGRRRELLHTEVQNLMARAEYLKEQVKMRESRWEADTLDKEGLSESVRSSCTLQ
The experiment can be described thus: Selectivity interaction (KinomeScan (DiscoverX)) EUB0001619a ULK3. As to conditions: at 1 µM.

In experiment [4] the target is Serine/threonine-protein kinase SIK2 (Homo sapiens) (UniProt Q9H0K1). Description: Selectivity interaction (KinomeScan (DiscoverX)) EUB0000666a SIK2. As to conditions: at 10 µM.
For experiment [5], the target named is T3, Histone-arginine methyltransferase CARM1 (Homo sapiens) (UniProt Q86X55).
T3 sequence (whole entry): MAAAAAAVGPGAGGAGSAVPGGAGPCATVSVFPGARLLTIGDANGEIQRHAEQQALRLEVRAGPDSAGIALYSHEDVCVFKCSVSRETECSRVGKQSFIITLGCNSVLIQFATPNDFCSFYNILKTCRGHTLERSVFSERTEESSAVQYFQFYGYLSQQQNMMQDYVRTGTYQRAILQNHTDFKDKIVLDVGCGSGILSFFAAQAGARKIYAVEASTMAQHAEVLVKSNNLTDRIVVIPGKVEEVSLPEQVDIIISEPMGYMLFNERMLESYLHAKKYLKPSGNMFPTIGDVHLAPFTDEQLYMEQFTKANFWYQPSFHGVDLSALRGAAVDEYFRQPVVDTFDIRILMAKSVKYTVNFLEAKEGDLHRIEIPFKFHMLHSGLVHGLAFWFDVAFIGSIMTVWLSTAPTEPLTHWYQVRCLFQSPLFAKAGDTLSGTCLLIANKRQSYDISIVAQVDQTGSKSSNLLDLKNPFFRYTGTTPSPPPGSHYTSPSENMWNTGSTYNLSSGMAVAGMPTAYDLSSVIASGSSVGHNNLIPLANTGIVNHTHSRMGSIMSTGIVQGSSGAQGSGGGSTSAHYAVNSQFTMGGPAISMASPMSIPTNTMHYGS
As to conditions: MM.1R, at 3 µM.

Experiment [6] deals with Protein-tyrosine kinase 2-beta (Homo sapiens) (UniProt Q14289). Description: Selectivity interaction (KinomeScan (DiscoverX)) EUB0000045b PTK2B.
Experiment [7] deals with Serine/threonine-protein kinase pim-1 (Homo sapiens, UniProt P11309). Description: Selectivity interaction (KinomeScan (DiscoverX)) EUB0001049a PIM1. As to conditions: at 1 µM.
In experiment [8] the target is Wee1-like protein kinase 2 (Homo sapiens) (UniProt P0C1S8). The experiment can be described thus: Selectivity interaction (KinomeScan (DiscoverX)) EUB0000655a WEE2. As to conditions: at 10 µM.
The target of experiment [9] is Serine/threonine-protein kinase N2 (Homo sapiens, UniProt Q16513). Description: Selectivity interaction (KinomeScan (DiscoverX)) EUB0000229b PKN2. As to conditions: at 10 µM.

We go through nine compounds from ChEMBL document CHEMBL5465560, “Selectivity Literature for EUbOPEN Chemogenomic Library” (2024).

Protein-tyrosine kinase 2-beta (Homo sapiens), sequence (Q14289 whole entry, looked up): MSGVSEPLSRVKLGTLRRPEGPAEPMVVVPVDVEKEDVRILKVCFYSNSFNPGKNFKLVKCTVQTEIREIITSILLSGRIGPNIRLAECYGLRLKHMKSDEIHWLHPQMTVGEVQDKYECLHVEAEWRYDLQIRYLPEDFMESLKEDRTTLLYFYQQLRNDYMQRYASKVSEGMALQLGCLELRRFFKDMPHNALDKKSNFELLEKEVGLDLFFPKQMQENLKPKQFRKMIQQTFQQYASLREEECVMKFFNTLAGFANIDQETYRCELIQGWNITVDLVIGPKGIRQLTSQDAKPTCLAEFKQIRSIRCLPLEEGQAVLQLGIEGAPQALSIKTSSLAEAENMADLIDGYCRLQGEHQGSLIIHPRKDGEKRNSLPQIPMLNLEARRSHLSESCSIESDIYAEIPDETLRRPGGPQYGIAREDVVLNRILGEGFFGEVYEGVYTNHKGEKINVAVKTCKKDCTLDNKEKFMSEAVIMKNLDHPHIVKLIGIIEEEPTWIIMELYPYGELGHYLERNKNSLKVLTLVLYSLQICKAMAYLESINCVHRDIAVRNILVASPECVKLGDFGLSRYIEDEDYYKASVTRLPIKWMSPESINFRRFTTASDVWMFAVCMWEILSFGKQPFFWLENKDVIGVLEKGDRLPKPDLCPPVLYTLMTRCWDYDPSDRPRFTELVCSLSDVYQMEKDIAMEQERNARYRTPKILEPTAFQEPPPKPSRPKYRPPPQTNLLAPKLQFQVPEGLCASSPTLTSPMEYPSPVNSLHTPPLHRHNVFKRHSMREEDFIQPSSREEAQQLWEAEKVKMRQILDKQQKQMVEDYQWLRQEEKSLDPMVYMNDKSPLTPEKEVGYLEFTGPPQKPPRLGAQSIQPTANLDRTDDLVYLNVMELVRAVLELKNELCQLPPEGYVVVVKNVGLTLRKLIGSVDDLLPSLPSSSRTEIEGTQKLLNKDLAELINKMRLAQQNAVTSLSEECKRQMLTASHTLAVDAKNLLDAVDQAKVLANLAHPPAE
Serine/threonine-protein kinase pim-1, sequence (P11309 whole entry, looked up): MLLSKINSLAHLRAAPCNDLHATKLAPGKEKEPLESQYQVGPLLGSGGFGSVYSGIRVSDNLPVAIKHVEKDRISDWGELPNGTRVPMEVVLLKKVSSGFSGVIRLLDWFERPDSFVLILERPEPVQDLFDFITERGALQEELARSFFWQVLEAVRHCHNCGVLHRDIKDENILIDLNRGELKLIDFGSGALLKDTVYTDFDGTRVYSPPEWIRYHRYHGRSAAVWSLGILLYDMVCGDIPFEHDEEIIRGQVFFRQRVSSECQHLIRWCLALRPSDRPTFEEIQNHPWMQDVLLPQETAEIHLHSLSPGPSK
Serine/threonine-protein kinase SIK2 (Homo sapiens), sequence (Q9H0K1 whole entry, looked up): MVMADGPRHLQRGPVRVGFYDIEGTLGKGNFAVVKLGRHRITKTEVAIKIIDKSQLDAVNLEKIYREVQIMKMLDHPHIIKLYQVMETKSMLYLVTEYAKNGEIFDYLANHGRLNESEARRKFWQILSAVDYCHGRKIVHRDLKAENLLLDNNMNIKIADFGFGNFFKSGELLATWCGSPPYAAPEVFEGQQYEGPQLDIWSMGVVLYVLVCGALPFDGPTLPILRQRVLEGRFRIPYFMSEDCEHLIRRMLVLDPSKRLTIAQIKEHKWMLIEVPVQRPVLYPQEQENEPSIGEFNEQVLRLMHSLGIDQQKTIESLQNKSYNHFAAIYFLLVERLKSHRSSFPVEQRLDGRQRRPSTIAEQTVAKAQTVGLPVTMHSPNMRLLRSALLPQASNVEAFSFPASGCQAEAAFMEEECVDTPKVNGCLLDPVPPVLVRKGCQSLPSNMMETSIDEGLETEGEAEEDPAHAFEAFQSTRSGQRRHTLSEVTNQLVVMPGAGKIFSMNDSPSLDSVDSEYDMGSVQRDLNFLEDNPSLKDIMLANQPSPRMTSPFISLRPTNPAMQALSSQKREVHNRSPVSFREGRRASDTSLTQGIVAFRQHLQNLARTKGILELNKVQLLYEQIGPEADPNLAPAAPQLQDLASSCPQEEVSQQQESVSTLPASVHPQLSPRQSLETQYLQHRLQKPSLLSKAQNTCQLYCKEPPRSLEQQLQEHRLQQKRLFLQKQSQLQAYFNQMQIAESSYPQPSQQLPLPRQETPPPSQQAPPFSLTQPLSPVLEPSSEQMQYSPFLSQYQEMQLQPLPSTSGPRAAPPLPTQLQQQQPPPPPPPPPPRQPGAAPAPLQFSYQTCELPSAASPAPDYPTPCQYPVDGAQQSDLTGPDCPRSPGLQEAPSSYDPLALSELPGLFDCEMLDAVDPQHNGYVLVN
RAF proto-oncogene serine/threonine-protein kinase (Homo sapiens), sequence (P04049 whole entry): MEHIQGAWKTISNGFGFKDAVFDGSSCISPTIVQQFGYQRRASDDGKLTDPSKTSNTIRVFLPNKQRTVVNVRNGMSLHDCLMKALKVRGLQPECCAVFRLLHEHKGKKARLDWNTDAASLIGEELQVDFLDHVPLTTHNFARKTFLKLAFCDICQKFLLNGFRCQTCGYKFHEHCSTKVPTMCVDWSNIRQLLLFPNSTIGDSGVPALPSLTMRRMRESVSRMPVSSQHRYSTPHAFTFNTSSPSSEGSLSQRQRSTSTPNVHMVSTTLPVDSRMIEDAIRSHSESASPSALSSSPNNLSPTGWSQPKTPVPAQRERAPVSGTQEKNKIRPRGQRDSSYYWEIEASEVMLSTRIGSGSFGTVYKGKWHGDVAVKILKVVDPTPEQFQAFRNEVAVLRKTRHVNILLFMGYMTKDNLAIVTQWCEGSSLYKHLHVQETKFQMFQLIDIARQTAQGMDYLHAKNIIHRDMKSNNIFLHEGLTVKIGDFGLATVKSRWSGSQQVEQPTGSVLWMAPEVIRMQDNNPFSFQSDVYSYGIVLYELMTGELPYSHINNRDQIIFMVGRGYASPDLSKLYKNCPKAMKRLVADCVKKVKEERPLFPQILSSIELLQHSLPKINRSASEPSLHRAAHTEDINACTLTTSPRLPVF
Wee1-like protein kinase 2 (Homo sapiens), sequence (P0C1S8 whole entry, looked up): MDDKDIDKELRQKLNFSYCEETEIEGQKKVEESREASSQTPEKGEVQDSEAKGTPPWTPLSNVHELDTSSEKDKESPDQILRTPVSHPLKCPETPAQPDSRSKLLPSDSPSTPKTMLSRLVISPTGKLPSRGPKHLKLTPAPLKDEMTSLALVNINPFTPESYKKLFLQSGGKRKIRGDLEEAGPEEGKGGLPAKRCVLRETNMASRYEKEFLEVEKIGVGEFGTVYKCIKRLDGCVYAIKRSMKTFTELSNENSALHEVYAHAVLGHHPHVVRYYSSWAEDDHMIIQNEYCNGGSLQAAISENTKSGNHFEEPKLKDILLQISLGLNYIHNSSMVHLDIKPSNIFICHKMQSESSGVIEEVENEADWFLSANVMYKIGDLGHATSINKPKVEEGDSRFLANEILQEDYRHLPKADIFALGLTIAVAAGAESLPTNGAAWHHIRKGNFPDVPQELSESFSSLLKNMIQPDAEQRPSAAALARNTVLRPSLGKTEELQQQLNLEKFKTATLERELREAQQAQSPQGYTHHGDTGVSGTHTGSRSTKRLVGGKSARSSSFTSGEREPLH
Serine/threonine-protein kinase N2, sequence (Q16513 whole entry, looked up): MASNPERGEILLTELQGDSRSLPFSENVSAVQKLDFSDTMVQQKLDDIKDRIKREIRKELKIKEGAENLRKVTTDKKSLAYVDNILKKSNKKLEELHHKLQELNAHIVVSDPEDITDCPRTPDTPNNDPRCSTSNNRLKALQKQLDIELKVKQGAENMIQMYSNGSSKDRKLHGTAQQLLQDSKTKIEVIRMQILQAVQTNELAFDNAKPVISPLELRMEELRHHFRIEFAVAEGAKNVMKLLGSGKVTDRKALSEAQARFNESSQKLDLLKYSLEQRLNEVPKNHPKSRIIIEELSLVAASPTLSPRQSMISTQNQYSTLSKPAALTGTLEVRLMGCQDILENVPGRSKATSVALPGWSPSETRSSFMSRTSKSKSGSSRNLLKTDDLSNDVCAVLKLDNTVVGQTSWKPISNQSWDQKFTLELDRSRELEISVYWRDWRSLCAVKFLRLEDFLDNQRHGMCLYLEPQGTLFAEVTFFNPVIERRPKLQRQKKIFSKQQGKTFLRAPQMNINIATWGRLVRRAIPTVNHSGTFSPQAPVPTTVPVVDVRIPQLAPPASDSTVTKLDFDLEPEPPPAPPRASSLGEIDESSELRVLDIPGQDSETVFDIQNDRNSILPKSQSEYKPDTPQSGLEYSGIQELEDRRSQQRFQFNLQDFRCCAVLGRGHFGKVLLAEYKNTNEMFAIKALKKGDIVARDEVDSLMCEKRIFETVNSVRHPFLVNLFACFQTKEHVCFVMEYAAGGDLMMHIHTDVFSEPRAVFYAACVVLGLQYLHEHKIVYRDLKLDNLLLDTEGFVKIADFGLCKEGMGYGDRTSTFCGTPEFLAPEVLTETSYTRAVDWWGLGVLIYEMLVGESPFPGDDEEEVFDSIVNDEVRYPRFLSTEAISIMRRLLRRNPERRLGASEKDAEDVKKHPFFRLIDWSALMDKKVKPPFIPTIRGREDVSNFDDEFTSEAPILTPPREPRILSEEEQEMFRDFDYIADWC

Regarding `COCCN1CCC(c2cc(CN(C)C(=O)c3cccc(Oc4ccccc4)c3)ccn2)CC1`, the % activity in [1] (at 1 µM) is greater than 95%; in [1] (at 10 µM) it was greater than 90%.
In experiment [2], `COCC(=O)NC/C=C/c1ccc2ncnc(Nc3ccc(Oc4ccc(C)nc4)c(C)c3)c2c1` [CP-724714] gave a % of control of 100%.
For the compound `N#Cc1cccc(-c2c[nH]c3ncnc(N4CCOCC4)c23)c1`, in experiment [3], the % of control was 25%.
`O=C(NOC[C@H](O)CO)c1ccc(F)c(F)c1Nc1ccc(I)cc1F` yielded a % of control in experiment [4] of 92%.
Consider `CNCCN1CCC(c2cc(CN(C)C(=O)c3cccc(Oc4ccccc4)c3)ccn2)CC1`, for which the % of growth rate in experiment [5] is -37.8%.
`C=CC(=O)Nc1cc(-n2c(=O)ccc3cnc4ccc(-c5ccc(NS(C)(=O)=O)cc5)cc4c32)ccc1C`: the % of control in experiment [6] (at 1 µM) was 100%; in experiment [6] (at 10 µM) it was 92%.
Compound `COc1cc(Nc2nc(C)cc(-c3cnn4nc(OC)ccc34)n2)cc(C(F)(F)F)c1` gave a % of control in experiment [7] of 100%.
In [8], `CN(C)CCOc1ccc(-c2nc(-c3ccncc3)c(-c3ccc4c(c3)CC/C4=N\O)[nH]2)cc1` gave a % of control of 100%.
On to `COc1cc(N(C)c2ccnc3ccc(C(F)(F)F)cc23)cc(OC)c1OC`, for which the % binding in [9] is 84%.
